Laboratory results from the supplement of paper PMC10307832.

Tests used:
Assay in all cases: relative viability (nuclei count vs DMSO), 5 days (fraction); higher = more cells survive
[1] = compound: CC(C)N(CCCNC(=O)Nc1ccc(C(C)(C)C)cc1)C[C@H]1O[C@@H](n2ccc3c(N)ncnc32)[C@H](O)[C@@H]1O + CC(=O)Nc1cccc(-n2c(=O)n(C3CC3)c(=O)c3c(Nc4ccc(I)cc4F)n(C)c(=O)c(C)c32)c1 [Trametinib] (partner 0.02 µM)
How it was run: (§1)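 Lung cancer cell lines were seeded in 1536-well plates and dosed by pin tool the next day, with either a single drug or a fixed anchor-drug dose combined with five library-drug doses (not always all listed) spaced in √10 steps. Five days later, one step fixed the cells and stained their nuclei (final 0.05% Triton X-100, 1% formaldehyde, 1 ug/ml Hoechst), and nuclei were counted on 4× images. Relative viability is the nuclei count in treated wells divided by the count in vehicle wells, and each value is the median of duplicate plates.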

Shikonin + Phenformin = compound: CC(C)=CC[C@@H](O)C1=CC(=O)c2c(O)ccc(O)c2C1=O [Shikonin] + N=C(N)NC(=N)NCCc1ccccc1 [Phenformin] (partner 250 µM)
How it was run: as §1

[2] = compound: CC(C)N(CCCNC(=O)Nc1ccc(C(C)(C)C)cc1)C[C@H]1O[C@@H](n2ccc3c(N)ncnc32)[C@H](O)[C@@H]1O + O=C(CCCCCCC(=O)Nc1ccccc1)NO [Vorinostat] (partner 1 µM)
How it was run: as §1

[3] = compound: CC(C)N(CCCNC(=O)Nc1ccc(C(C)(C)C)cc1)C[C@H]1O[C@@H](n2ccc3c(N)ncnc32)[C@H](O)[C@@H]1O + CS(=O)(=O)N1CCN(Cc2cc3nc(-c4cccc5[nH]ncc45)nc(N4CCOCC4)c3s2)CC1 [Pictilisib] (partner 1 µM)
How it was run: as §1

| Cell Line | relative viability ([1]; first compound 0.08 µM) | relative viability ([1]; first compound 0.253 µM) | relative viability ([1]; first compound 2.53 µM) | relative viability ([1]; first compound 8 µM) | relative viability (Shikonin + Phenformin; first compound 0.01 µM) | relative viability (Shikonin + Phenformin; first compound 0.1 µM) | relative viability (Shikonin + Phenformin; first compound 0.3162 µM) | relative viability (Shikonin + Phenformin; first compound 1 µM) | relative viability ([2]; first compound 0.08 µM) | relative viability ([2]; first compound 0.253 µM) | relative viability ([2]; first compound 2.53 µM) | relative viability ([2]; first compound 8 µM) | relative viability ([3]; first compound 0.08 µM) | relative viability ([3]; first compound 0.253 µM) | relative viability ([3]; first compound 0.8 µM) | relative viability ([3]; first compound 2.53 µM) | relative viability ([3]; first compound 8 µM) | relative viability ([1]; first compound 0.8 µM) | relative viability ([2]; first compound 0.8 µM) |
| --- | --- | --- | --- | --- | --- | --- | --- | --- | --- | --- | --- | --- | --- | --- | --- | --- | --- | --- | --- |
| 201T | 0.719 | 0.692 | 0.733 | 0.695 | 0.464 | 0.492 | 0.428 | 0.498 | 0.984 | 0.975 | 0.911 | 0.931 | 0.652 | 0.624 | 0.571 | 0.722 | 0.733 |  |  |
| A549 |  |  |  |  | 0.14 | 0.355 | 0.12 | 0.122 |  |  |  |  | 0.513 | 0.501 | 0.53 | 0.52 | 0.469 |  |  |
| A-427 | 0.751 | 0.816 | 0.806 | 0.743 | 0.327 | 0.418 | 0.316 | 0.398 | 0.839 | 0.912 | 0.901 | 0.9 | 0.775 | 0.644 | 0.812 | 0.597 | 0.77 | 0.677 | 0.875 |
| ABC-1 |  |  |  |  | 0.247 | 0.23 | 0.206 | 0.188 | 1.19 | 1.29 | 1.07 | 0.919 | 0.623 | 0.71 |  | 0.828 | 0.701 |  |  |
| BEN | 1.01 | 0.92 | 1.26 | 1.08 | 0.298 | 0.286 | 0.279 | 0.232 | 0.597 | 0.539 | 0.606 | 0.572 | 0.606 | 0.497 | 0.586 | 0.588 | 0.586 | 0.96 | 0.576 |
| CAL-12T | 0.346 | 0.345 | 0.323 | 0.306 | 0.612 | 0.542 | 0.464 | 0.55 | 0.788 | 0.76 | 0.644 | 0.578 | 0.316 | 0.388 | 0.398 | 0.459 | 0.47 | 0.362 | 0.965 |
| COR-L23 | 0.664 | 0.374 | 0.67 | 0.519 | 0.462 | 0.438 | 0.465 | 0.406 | 0.378 | 0.431 | 0.5 | 0.374 | 0.678 | 0.606 | 0.662 | 0.778 | 0.735 | 0.631 | 0.462 |
| COR-L 105 | 0.492 | 0.402 | 0.465 | 0.537 | 0.452 | 0.507 | 0.423 | 0.466 | 0.893 | 1.41 | 0.89 | 0.818 | 0.413 | 0.301 | 0.408 | 0.369 | 0.404 | 0.496 | 0.879 |
| Calu-6 |  |  |  |  |  |  |  |  |  |  |  |  | 0.929 | 0.91 | 0.971 | 0.922 | 0.882 |  |  |
| ChaGo-K-1 | 0.91 | 0.875 | 0.876 | 0.843 | 0.475 | 0.542 | 0.543 | 0.471 | 0.785 | 0.827 | 0.715 | 0.766 | 0.771 | 0.726 | 0.658 | 0.632 | 0.912 | 0.876 | 0.756 |
| EBC-1 |  |  |  |  |  |  |  |  |  |  |  |  | 0.334 | 0.386 | 0.338 | 0.399 | 0.347 |  |  |
| EKVX | 0.392 | 0.339 | 0.359 | 0.327 | 0.213 | 0.229 | 0.233 | 0.243 | 0.64 | 0.772 | 0.62 | 0.705 | 0.454 | 0.407 | 0.446 | 0.468 | 0.423 | 0.376 | 0.705 |
| EMC-BAC-2 | 0.895 | 0.851 | 0.854 | 0.819 | 0.516 | 0.607 | 0.569 | 0.517 | 0.465 | 0.416 | 0.409 | 0.401 | 0.601 | 0.49 | 0.581 | 0.522 | 0.502 | 0.965 | 0.461 |
| EPLC-272H | 0.246 | 0.273 | 0.333 | 0.298 | 0.282 | 0.309 | 0.255 | 0.298 | 0.404 | 0.439 | 0.4 | 0.708 | 0.286 | 0.253 | 0.314 | 0.284 | 0.322 | 0.27 | 0.664 |
| H3255 | 0.492 | 0.593 | 0.587 | 0.49 | 0.398 | 0.384 | 0.353 | 0.35 | 0.743 | 0.807 | 0.788 | 0.477 | 0.463 | 0.414 | 0.442 | 0.557 | 0.461 | 0.483 | 0.717 |
| HARA | 0.736 | 0.412 | 0.511 | 0.508 | 0.431 | 0.707 | 0.538 | 0.491 | 0.559 | 0.511 | 0.496 | 0.475 | 0.506 | 0.479 | 0.344 | 0.311 | 0.31 | 0.54 | 0.529 |
| HCC-15 | 0.338 | 0.363 | 0.362 | 0.351 | 0.511 | 0.545 | 0.49 | 0.456 | 0.92 | 0.806 | 0.818 | 0.793 | 0.697 | 0.695 | 0.643 | 0.732 | 0.701 | 0.401 | 0.888 |
| HCC-44 | 1.11 | 1.09 | 1.11 | 1.18 | 0.212 | 0.162 | 0.226 | 0.267 | 1.1 | 1.26 | 1.1 | 1.01 | 0.542 | 0.644 | 0.488 | 0.734 | 0.578 | 0.936 | 1.04 |
| HCC-78 | 0.716 | 0.867 | 0.586 | 0.736 | 0.66 | 0.705 | 0.697 | 0.806 | 0.41 | 0.391 | 0.42 | 0.488 | 0.156 | 0.196 | 0.263 | 0.192 | 0.212 | 0.804 | 0.4 |
